The values that follow come from patent US6545039B1 (Viatris GmbH & Co. KG, priority 1999, dated 2003).

This data set in a line: Tolerability of intravenous infusion rates in healthy subjects. The format is in vivo, human. The settings on record: i.v., all infusion rates used (100, 200, 600 mg/min). The text has this: The following results were obtained here. 1.

For `O=C(O)CCCCC1CCSS1` (stereo not drawn) [α-lipoic acid], the “tolerability of infusion rate” value is “excellently tolerated”.
